The values below come from patent US8093273B2, “Flavanoids and isoflavanoids for the prevention and treatment of cardiovascular diseases” (Resverlogix Corp., priority 2004, dated 2012).

Where two headings read alike, the source gives them in different places.

The test system of one series is ApoA-I protein. In words: ApoA-I protein expression in HepG2 cells (ELISA of conditioned media). It counts as cell-based, human. As to conditions: 7.5 μM. As for the experimental part:
This study confirmed that compounds of the invention have an effect on ApoA-I protein secretion in HepG2 (liver) cells by measuring whether stimulation of transcriptional activity of the endogenous ApoA-I promoter in the HepG2 cells increased the abundance and secretion of ApoA-I protein.
The HepG2 cell line was obtained from the ATCC and cultured in MEM media supplemented with 10% FBS (Gibco), with 1 mM sodium pyruvate, 0.1 mM MEM non-essential amino acid, 2 mM L-glutamine, 100 U/ml penicillin, 100 μg/ml streptomycin and 5 μg/ml plasmocin. Cells were maintained at 37° C. in an atmosphere of 5% CO2 Cells were grown to 85% confluency prior to initiating the experiment.
Cells were plated and allowed to adhere overnight in a phenol red-free DMEM containing 10% of Charcoal/Dextran treated FBS (Hyclone), with 1 mM sodium pyruvate, 0.1 mM MEM non-essential amino acid, 2 mM L-glutamine, 100 U/ml penicillin, 100 μg/ml streptomycin and 5 μg/ml plasmocin. The medium was removed, and cells were washed in 1×PBS. Cells were then starved in phenol red-free DMEM (serum free) for a period of 24 hours. Cells were then mock treated (untreated, DMSO), or treated with compound of the invention diluted in phenol red-free DMEM (serum free) media at a concentration of 7.5 μM. Cells and media were harvested at 0, 6 and 24 hours following compound treatment.
Medium was removed from cells at the desired times and applied to a solid phase capture sandwich in an ELISA assay according to manufacturer's instructions (Total human Apolipoprotein ELISA Assay-Alercheck).
A general note: ELISA stands for enzyme-linked immunosorbent assay.

A further series in a line: Caco-2 permeability. The class given is in vitro ADME, human. As to conditions: human, Caco-2. An excerpt:
The Caco-2 cell drug transport model is widely used for screening compounds in drug discovery to assess intestinal transport and predict absorption rates.
(In general: Caco-2 cells form a polarised layer with tight junctions and transporters.)

For a further series, the system named is hApoA-I transgenic mice. In words: hApoA-I transgenic mice, oral gavage for 14 days. It counts as in vivo. As to conditions: Mus musculus, po, 336 h, relative to pretreatment, read-out: ApoA-I (% change); for change in vivo at 10 mg/kg: 10 mg/kg BID 14 days. Put shortly: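 Male hApoA-I transgenic mice (7–8 weeks) dosed orally by gavage daily for 14 days, BID or SID, as suspensions at 5 mL/kg in 0.5% methylcellulose/1% Tween 80 or F-101; fenofibrate 100 mg/kg as positive control. After a 4 h fast on day 15, plasma ApoA-I, HDL-C, total cholesterol and triglycerides measured relative to pre-bleed-matched groups.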

For orientation: Papp means the rate of passage across a membrane or cell layer, normalised by area and donor concentration. Read a high Papp as fast passage. Consider `O=c1cc(-c2ccc(O)cc2)oc2ncccc12` [Example 34, 2-(4-Hydroxy-phenyl)-pyrano[2,3-b]pyridin-4-one], for which the “ApoA-I content in the medium (ELISA)” value in the series on ApoA-I protein (6 and 24 hours, vs untreated cells and cells treated with solvent) is on record as “increased significantly”. For the same molecule, the “time after addition of compound at which ApoA-I levels in the medium start to increase” value with ApoA-I protein (time course 0, 6, 24 hours) is approximately 6 h. Further, the Papp in the series “Caco-2 permeability” turned out to be 6.36 ×10⁻⁶ cm/s. Besides, the change in vivo at 3 mg/kg in the series with hApoA-I transgenic mice (Table 6 first group, 3 mg/kg BID 14 days, Control 1 (0.5% MC & 1% Tween 80) 11.94) worked out at 18.9%. Besides, the change in vivo at 10 mg/kg came out at 36.6% in the series with hApoA-I transgenic mice (Table 6 first group, Control 1 11.94) and 30.9% in the series on hApoA-I transgenic mice (Table 6 third group, Control 3 (F-101) (6.32)). For the same molecule, the change in vivo at 30 mg/kg in the series with hApoA-I transgenic mice (Table 6 first group, 30 mg/kg BID 14 days, Control 1 11.94) came out at 47.5%.
